How the values were obtained:
[1] = test system: Saccharomyces cerevisiae wild type strain BY4743; assay: AF1 combined gene expression and metabolite data mapped to KEGG reactions and pathways, cluster analysis; assay type: cell-based
Text: In AF1, two different technologies were utilized: gene expression analysis (for examination of mRNA expression) and metabolite analysis. […] As noted previously, existing metabolic databases may be helpful in practicing the methods and systems of the present invention, but many databases include limitations that make their use in data analysis and pathway mapping less than straightforward. […] This caveat to KEGG makes it difficult to pinpoint the correct pathway when attempting to link a gene to a specific pathway. […] The pathway score indicates how meaningful the mapping is, or how likely it is to be correctly indicative of the pathway involved in the perturbation under examination. […] Degree of perturbation can be calculated, for example, based on a number of standard deviations from a norm, and included in an equation such as the one shown above, so that not only the number of pathways is taken into account, but also accounts for the amount of gene transcript or compound present as compared to a control. […] KEGG links 676 compounds measured in AF1 to a total of 92 pathways. Of the 676 compounds under consideration, 77 were detected in the AF1 samples. […]

[2] = test system: Saccharomyces cerevisiae wild type strain BY4743; assay: AF1 metabolite analysis (GC-MS, LC-MS) of yeast cells treated with antifungal drugs; assay type: cell-based

C[C@@H]1[C@H](O)[C@@H](C)/C=C/C=C/C=C/C=C/C=C/C=C/C=C/[C@H](O[C@@H]2O[C@H](C)[C@@H](O)[C@H](N)[C@@H]2O)C[C@@H]2O[C@](O)(C[C@@H](O)C[C@@H](O)[C@H](O)CC[C@@H](O)C[C@@H](O)CC(=O)O[C@H]1C)C[C@H](O)[C@H]2C(=O)O [Amphoteracin B]
0: Fold Change: campesterol ([2]; GC) | Fold Change: desmosterol ([2]; GC) | Fold Change: abscisic acid ([2]; LC) | Fold Change: adenosine ([2]; LC) | Fold Change: riboflavin ([2]; LC) | Fold Change: 4-methylcatechol ([2]; nLC) | Fold Change: 5hydroxyLtryptophan ([2]; nLC) | Fold Change: 6-benzylaminopurine ([2]; nLC) | Fold Change: NacetylDglucosamine ([2]; nLC) | Fold Change: NacetylLornithine ([2]; nLC) | Fold Change: abscisic acid ([2]; nLC) | Fold Change: adenine ([2]; nLC) | Fold Change: adenosine ([2]; nLC) | Fold Change: anthranilic acid ([2]; nLC) | Fold Change: argininosuccinate ([2]; nLC) | Fold Change: benzoic acid ([2]; nLC) | Fold Change: catechol ([2]; nLC) | Fold Change: cinnamic acid ([2]; nLC) | Fold Change: citricanoic/itaconi ([2]; nLC) | Fold Change: coumaric acid ([2]; nLC) | Fold Change: cytosine ([2]; nLC) | Fold Change: diaminopimelic acid ([2]; nLC) | Fold Change: dihydrofolic acid ([2]; nLC) | Fold Change: estrone ([2]; nLC) | Fold Change: farnesol ([2]; nLC) | Fold Change: folic acid ([2]; nLC) | Fold Change: gibberellic ([2]; nLC) | Fold Change: guanine ([2]; nLC) | Fold Change: histidine ([2]; nLC) | Fold Change: homogentisic/uric ([2]; nLC) | Fold Change: hydrocortisone ([2]; nLC) | Fold Change: indole3pyruvic acid ([2]; nLC) | Fold Change: jasmonic acid ([2]; nLC) | Fold Change: kinetin ([2]; nLC) | Fold Change: luteolin ([2]; nLC) | Fold Change: malonic acid ([2]; nLC) | Fold Change: methionine ([2]; nLC) | Fold Change: phenylpyruvic acid ([2]; nLC) | Fold Change: phosphoenolpyruvate ([2]; nLC) | Fold Change: pinitol ([2]; nLC) | Fold Change: porphobilinogen ([2]; nLC) | Fold Change: retinoic acid ([2]; nLC) | Fold Change: salicylic/HObenzoic ([2]; nLC) | Fold Change: shikimic acid ([2]; nLC) | Fold Change: sinapinic acid ([2]; nLC) | Fold Change: thymine ([2]; nLC) | Fold Change: 4-aminobenzoic acid ([2]; pLC) | Fold Change: 4-methylcatechol ([2]; pLC) | Fold Change: 5hydroxyLtryptophan ([2]; pLC) | Fold Change: 6benzylaminopurine ([2]; pLC) | Fold Change: NacetylDglucosamine ([2]; pLC) | Fold Change: NacetylLglutamate ([2]; pLC) | Fold Change: allantoic acid ([2]; pLC) | Fold Change: anthranilic acid ([2]; pLC) | Fold Change: argininosuccinate ([2]; pLC) | Fold Change: biotin ([2]; pLC) | Fold Change: caffeine ([2]; pLC) | Fold Change: citric acid TME ([2]; pLC) | Fold Change: cytidine ([2]; pLC) | Fold Change: cytosine ([2]; pLC) | Fold Change: diaminopimelic acid ([2]; pLC) | Fold Change: dihydrofolic acid ([2]; pLC) | Fold Change: dipicolinic acid ([2]; pLC) | Fold Change: folic acid ([2]; pLC) | Fold Change: glucosamine ([2]; pLC) | Fold Change: glucosamine6PO4 ([2]; pLC) | Fold Change: histidine ([2]; pLC) | Fold Change: hydrocortisone ([2]; pLC) | Fold Change: itaconic acid dimes ([2]; pLC) | Fold Change: kinetin ([2]; pLC) | Fold Change: luteolin ([2]; pLC) | Fold Change: niacinamide ([2]; pLC) | Fold Change: nopaline ([2]; pLC) | Fold Change: phosphoenolpyruvate ([2]; pLC) | Fold Change: progesterone ([2]; pLC) | Fold Change: sugar-phosphate ([2]; pLC) | Fold Change: thiamine ([2]; pLC) | Fold Change: thymine ([2]; pLC) | Fold Change: tryptophan ([2]; pLC)
0.21: Fold Change: octadecanoic acid ([2]; GC)
not: squalene and lanosterol in treated yeast cells ([2]; AF1, 2×MIC, two hours)
54: # Reactions Having an Enzyme and at Least One Compound Perturbed [1]

Source: patent publication US6873914B2, “Methods and systems for analyzing complex biological systems” (Icoria, Inc., priority 2001, dated 2005)
